US20250114460A1, “NOVEL PLK1 DEGRADATION INDUCING COMPOUND” (UPPTHERA, INC., priority 2021, published 2025)

Key:
Assay type in all cases: cell-based
[1] = test system: MRC-5 cell line; test: Cell viability assay for MRC-5 cell line (EZ-Cytox); conditions: Homo sapiens, MRC5, 120 h; MRC-5 normal cell line, 5 days, 10000 nM to 1.52 nM; N.D. = no cytotoxicity until 10 μM; read-out: Activity: IC50 value of Exemplary Compound to MRC-5 cell line
Procedure: 4. Cell Viability Assay for MRC-5 Cell Line
(1) Culture of MRC-5 Cell Line
Passage of cultured cells was maintained within P15.
(2) Treatment of Compounds of the Present Invention
Then, it was cultured in 37° C.
(3) Cytotoxicity Experiment
CO2 incubator for 4 hours.

[2] = test system: NCI-H526 cell line; test: Cell viability assay for H526 cell (EZ-Cytox); conditions: Homo sapiens, NCI-H526, 120 h; H526 cells, 5 days, 3000 nM to 0.46 nM
Method in brief: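 NCI-H526 cells were exposed to compound in CO2 incubator culture for 5 days. Viability was read by EZ-Cytox absorbance at 450 nm after 3 min shaking, giving IC50 values.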

[3] = target: T1, PLK1 (Homo sapiens, UniProt P53350); test: Luciferase assay for PLK1 in HeLa LgBit (Plk1-HiBit KI) cell line; conditions: 300 nM compound, luminescence after 9 hours
T1 construct: endogenous in cells; host or cells: HeLa LgBit (Plk1-HiBit KI): HeLa stably expressing LgBit, with a CRISPR/Cas9 knock-in of HiBit at the endogenous PLK1 locus
Method in brief: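 HeLa cells stably expressing LgBit, with HiBit knocked in at the C-terminus of endogenous Plk1, released from a 24 h 2 mM thymidine block and grown 18 h. Endurazine added, then compound at 300 nM; luminescence tracked in real time, expressed as ratio to DMSO.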

T1 sequence (P53350 whole entry): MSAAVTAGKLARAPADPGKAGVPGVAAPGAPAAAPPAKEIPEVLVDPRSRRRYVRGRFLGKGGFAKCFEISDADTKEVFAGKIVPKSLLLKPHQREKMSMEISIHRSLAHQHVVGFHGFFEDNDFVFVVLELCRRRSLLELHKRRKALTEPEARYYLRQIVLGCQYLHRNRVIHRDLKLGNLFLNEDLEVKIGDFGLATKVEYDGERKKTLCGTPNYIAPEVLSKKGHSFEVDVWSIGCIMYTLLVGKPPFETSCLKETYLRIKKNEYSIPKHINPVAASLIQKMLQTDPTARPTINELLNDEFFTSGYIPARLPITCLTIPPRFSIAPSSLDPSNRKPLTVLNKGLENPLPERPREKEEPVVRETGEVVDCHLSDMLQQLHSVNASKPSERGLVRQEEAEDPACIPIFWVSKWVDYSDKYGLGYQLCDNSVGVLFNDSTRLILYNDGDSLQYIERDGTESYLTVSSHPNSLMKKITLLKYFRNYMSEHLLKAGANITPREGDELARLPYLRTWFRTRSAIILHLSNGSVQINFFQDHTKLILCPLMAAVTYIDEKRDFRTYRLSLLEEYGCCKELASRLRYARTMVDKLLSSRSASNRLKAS

SMILES	IC50 [1]	IC50 [2]	Activity: ratio of the luminescense value of each Exemplary Compound treatment group to DMSO treatment group [3]
COc1cc(C(=O)NC2CC(N(C)CCC3CCN(c4ccc5c(c4)C(=O)N(C4CCC(=O)NC4=O)C5=O)CC3)C2)ccc1Nc1ncc2c(n1)N(C1CCCC1)CC(F)(F)C(=O)N2C (stereo not drawn) [Compound 106, 4-((9-cyclopentyl-7,7-difluoro-5-methyl-6-oxo-6,7,8,9-tetrahydro-5H-pyrimido[4,5-b][1,4]diazepin-2-yl)amino)-N-(3-((2-(1-(2-(2,6-dioxopiperidin-3-yl)-1,3-dioxoisoindolin-5-yl)piperidin-4-yl)ethyl)(methyl)amino)cyclobutyl)-3-methoxybenzamide]	> 10 µM	< 0.1 µM	+++ (+++: <0.3)
COc1cc(C(=O)NC2CC(N(C)CCC3CCN(c4cccc5c4C(=O)N(C4CCC(=O)NC4=O)C5=O)CC3)C2)ccc1Nc1ncc2c(n1)N(C1CCCC1)CC(F)(F)C(=O)N2C (stereo not drawn) [Compound 107, 4-((9-cyclopentyl-7,7-difluoro-5-methyl-6-oxo-6,7,8,9-tetrahydro-5H-pyrimido[4,5-b][1,4]diazepin-2-yl)amino)-N-(3-((2-(1-(2-(2,6-dioxopiperidin-3-yl)-1,3-dioxoisoindolin-4-yl)piperidin-4-yl)ethyl)(methyl)amino)cyclobutyl)-3-methoxybenzamide]	> 10 µM	< 0.1 µM	++ (++<0.6)
COc1cc(C(=O)N[C@H]2CC[C@H](N3CCN(CCC4CCN(c5cccc6c5C(=O)N(C5CCC(=O)NC5=O)C6=O)CC4)CC3)CC2)c(F)cc1Nc1ncc2c(n1)N(C1CCCC1)CC(F)(F)C(=O)N2C (stereo partly drawn) [Compound 114, 4-((9-cyclopentyl-7,7-difluoro-5-methyl-6-oxo-6,7,8,9-tetrahydro-5H-pyrimido[4,5-b][1,4]diazepin-2-yl)amino)-N-((1r,4r)-4-(4-(2-(1-(2-(2,6-dioxopiperidin-3-yl)-1,3-dioxoisoindolin-4-yl)piperidin-4-yl)ethyl)piperazin-1-yl)cyclohexyl)-2-fluoro-5-methoxybenzamide]	> 10 µM	< 0.2 µM	++ (++<0.6)
COc1cc(C(=O)N[C@H]2CC[C@H](OC3CCN(c4cccc5c4C(=O)N(C4CCC(=O)NC4=O)C5=O)CC3)CC2)c(F)cc1Nc1ncc2c(n1)N(C1CCCC1)CC(F)(F)C(=O)N2C (stereo partly drawn) [Compound 115, 4-((9-cyclopentyl-7,7-difluoro-5-methyl-6-oxo-6,7,8,9-tetrahydro-5H-pyrimido[4,5-b][1,4]diazepin-2-yl)amino)-N-((1r,4r)-4-((1-(2-(2,6-dioxopiperidin-3-yl)-1,3-dioxoisoindolin-4-yl)piperidin-4-yl)oxy)cyclohexyl)-2-fluoro-5-methoxybenzamide]	> 10 µM	< 0.4 µM	++ (++<0.6)
CN1C(=O)C(F)(F)CN(C2CCCC2)c2nc(Nc3ccc(C(=O)NC4CCN(C(=O)CCN5CCN(c6cccc7c6C(=O)N(C6CCC(=O)NC6=O)C7=O)CC5)CC4)cc3F)ncc21 (stereo not drawn) [Compound 118, 4-((9-cyclopentyl-7,7-difluoro-5-methyl-6-oxo-6,7,8,9-tetrahydro-5H-pyrimido[4,5-b][1,4]diazepin-2-yl)amino)-N-(1-(3-(4-(2-(2,6-dioxopiperidin-3-yl)-1,3-dioxoisoindolin-4-yl)piperazin-1-yl)propanoyl)piperidin-4-yl)-3-fluorobenzamide]	> 10 µM	< 0.05 µM	++ (++<0.6)
COc1cc(C(=O)NC2CCN(C(=O)CCN3CCN(c4cccc5c4C(=O)N(C4CCC(=O)NC4=O)C5=O)CC3)CC2)c(C(F)(F)F)cc1Nc1ncc2c(n1)N(C1CCCC1)CC(F)(F)C(=O)N2C (stereo not drawn) [Compound 119, 4-((9-cyclopentyl-7,7-difluoro-5-methyl-6-oxo-6,7,8,9-tetrahydro-5H-pyrimido[4,5-b][1,4]diazepin-2-yl)amino)-N-(1-(3-(4-(2-(2,6-dioxopiperidin-3-yl)-1,3-dioxoisoindolin-4-yl)piperazin-1-yl)propanoyl)piperidin-4-yl)-5-methoxy-2-(trifluoromethyl) benzamide]	> 10 µM	< 0.2 µM	++ (++<0.6)
COc1cc(C(=O)NC2CCN(C(=O)CCN3CCN(c4cccc5c4C(=O)N(C4CCC(=O)NC4=O)C5=O)CC3)CC2)ccc1Nc1ncc2c(n1)N(C1CCCC1)CC1(CC1)C(=O)N2C (stereo not drawn) [Compound 120, 4-((9′-cyclopentyl-5′-methyl-6′-oxo-5′,6′,8′,9′-tetrahydrospiro[cyclopropane-1,7′-pyrimido[4,5-b][1,4]diazepin]-2′-yl)amino)-N-(1-(3-(4-(2-(2,6-dioxopiperidin-3-yl)-1,3-dioxoisoindolin-4-yl)piperazin-1-yl)propanoyl)piperidin-4-yl)-3-methoxybenzamide]	> 10 µM	< 0.05 µM	+++ (+++: <0.3)
COc1cc(C(=O)NC2CCN(C(=O)CCN3CCN(c4cccc5c4C(=O)N(C4CCC(=O)NC4=O)C5=O)CC3)CC2)ccc1Nc1ncc2c(n1)N(C1CCCC1)CC(C)(C)C(=O)N2C (stereo not drawn) [Compound 121, 4-((9-cyclopentyl-5,7,7-trimethyl-6-oxo-6,7,8,9-tetrahydro-5H-pyrimido[4,5-b][1,4]diazepin-2-yl)amino)-N-(1-(3-(4-(2-(2,6-dioxopiperidin-3-yl)-1,3-dioxoisoindolin-4-yl)piperazin-1-yl)propanoyl)piperidin-4-yl)-3-methoxybenzamide]	> 10 µM	< 0.2 µM	++ (++<0.6)
COc1cc(C(=O)NC2CCCN(C(=O)CCN3CCN(c4cccc5c4C(=O)N(C4CCC(=O)NC4=O)C5=O)CC3)C2)ccc1Nc1ncc2c(n1)N(C1CCCC1)CC(F)(F)C(=O)N2C (stereo not drawn) [Compound 123, 4-((9-cyclopentyl-7,7-difluoro-5-methyl-6-oxo-6,7,8,9-tetrahydro-5H-pyrimido[4,5-b][1,4]diazepin-2-yl)amino)-N-(1-(3-(4-(2-(2,6-dioxopiperidin-3-yl)-1,3-dioxoisoindolin-4-yl)piperazin-1-yl)propanoyl)piperidin-3-yl)-3-methoxybenzamide]	> 10 µM	< 0.1 µM	++ (++<0.6)
COc1cc(C(=O)NN2CCC(CN3CCN(c4cccc5c4C(=O)N(C4CCC(=O)NC4=O)C5=O)CC3)CC2)ccc1Nc1ncc2c(n1)N(C1CCCC1)CC(F)(F)C(=O)N2C (stereo not drawn) [Compound 124, 4-((9-cyclopentyl-7,7-difluoro-5-methyl-6-oxo-6,7,8,9-tetrahydro-5H-pyrimido[4,5-b][1,4]diazepin-2-yl)amino)-N-(4-((4-(2-(2,6-dioxopiperidin-3-yl)-1,3-dioxoisoindolin-4-yl)piperazin-1-yl)methyl)piperidin-1-yl)-3-methoxybenzamide]	> 10 µM	< 0.03 µM	++ (++<0.6)
